Test results as given in patent EP3521435A1, “A HIGH STRINGENCY SELECTION SYSTEM FOR PROTEIN EXPRESSION IN PROLINE-AUXOTROPHIC CELLS” (Bayer AG, priority 2018, dated 2019).

Experiments:
CHO-K1 cells [1] = assay: Cell viability post-transfection of transfected cell populations under selection conditions; assay type: cell-based, Chinese hamster; details: for recovery of cultures: 0.8 mM DHP; for Viability on day 15 post-transfection: pJF2460
Experimental: (§1) To efficiently test the impact of different procedures on improving selection stringency, experimental testing in stable cell populations was performed. As test molecules, enhanced green fluorescent protein (GFP) as well as a human IgG1 were chosen. CHO-K1 cells adapted to growth in suspension in defined medium were obtained from SAFC and cultivated in EX-CELL CD CHO Fusion medium (SAFC 14365C). Custom-made EX-CELL CD CHO Fusion medium without L-Proline (Pro) and without L-Ornithine (Orn) ("proline-free medium") was obtained from SAFC. The expression vector system was based on modified versions of "CET 1019 AS-puro-SceI" and "CET 1019 AD-puro-SceI" for GFP and human IgG1, respectively, from Merck-Millipore, containing the Puromycin selection marker (Puromycin N-acetyl-transferase) known to exert a high selection stringency. To minimize variations in cell populations derived from using different transfections or different vectors, the first series of experiments were conducted using vectors into which a P5CS expression cassette was cloned upstream of a UCOE element, in addition to the Puromycin selection marker present downstream of a gene of interest. This way, it was possible to pool different transfections using the same vector to obtain a common starting point, and split the mixture according to different selection conditions, minimizing any variations that are not due to selection conditions themselves. Expression of long and short isoform of murine P5CS (Protein: Delta-1-pyrroline-5-carboxylate synthase; Gene: Aldh18a1; UniProtKB accession number: Q9Z110-1 & Q9Z110-2) was driven by a SV40 promoter. A SV40 polyadenylation sequence was used at the 3' end of the gene. More details can be found in Table 1. Typically, CHO cells were cultivated in EX-CELL CD CHO Fusion medium containing 6 mM GlutaMAX (Thermo Fisher, 35050-38) ("CD-Fusion medium") at 37 °C with 5% CO2. Cells were grown to logarithmic phase under shaking conditions for transfections. 1e7 cells/cuvette were transfected using nucleofection (Amaxa Nucleofector II, following the manufacturer's recommendations) with 5 µg of linearized DNA. After transfection, cells were taken up in 1 ml medium and transferred into 1 well of a 6 well microtiter plate (MTP) already containing 1 ml medium. The cells were incubated for 24 h without shaking, after which 9 ml medium were added and cells were washed (either in standard or proline-free medium). Multiple transfections were pooled, if applicable. Cells were adjusted to 2e5 viable cells/ml and 10 ml were transferred to T-25 flasks. Reference cell populations were selected using 10 µg/ml Puromycin in CD-Fusion medium. For P5CS-based selection, EX-CELL CD CHO Fusion medium (custom-made, SAFC) containing 6 mM GlutaMAX without proline and without ornithine was used ("proline-free" or "CD-Fusion w/o Pro" medium), with or without additional selection pressure.
(§2) Cell viability of the different populations was monitored over time. As soon as cell populations appeared to recover from selection pressure, cells were transferred to Shake Flask or TubeSpins for expansion in suspension under shaking conditions. Subsequently, stable cell populations transfected with IgG were seeded at 2e5 viable cells/ml for batch fermentation without selection pressure (i.e. standard CD-Fusion medium containing proline and no other selective agents). The cells were cultivated for 5-10 days, viable cell densities and productivity were monitored over time. IgG titers were determined using Poros A-HPLC method. Typically, final batch titers were recorded at a time point at which majority of cultures had around 70% viability. Stable cell populations transfected with GFP vector were subjected to analysis by flow cytometry using Guava easyCyte 8HT Benchtop Flow Cytometer (Millipore). 250 µl of cell culture were transferred to 96 MTP and washed with PBS. Dead cells were excluded from analysis using propidium iodide (PI). […]

CHO-K1 cells [2] = assay: Batch fermentation in shake flasks of human IgG1 expressing stable cell populations (Poros A-HPLC titer, viable cell density, viability); assay type: cell-based, Chinese hamster; details: pJF1576
Experimental: as §1, §2

[3] = pJF1555, CD-Fusion w/o Pro + 0.2 mM DHP
[4] = pJF1576, CD-Fusion w/o Pro + 0.2 mM DHP
[5] = pJF1576, CD-Fusion w/o Pro + 0.4 mM DHP
[6] = Day 2 after inoculation, selected in CD-Fusion w/o Pro + 0.05 mM DHP, non-selecting conditions
[7] = Day 2 after inoculation, selected in CD-Fusion w/o Pro + 0.1 mM DHP, non-selecting conditions

Structure (SMILES): O=C(O)[C@@H]1C=CCN1 [DHP, 3,4-Dehydro-L-Proline]
- recovery of cultures (CHO-K1 cells [1]; pJF1555, even after prolonged incubations): did not recover
- recovery of cultures (CHO-K1 cells [1]; pJF1576): did not recover
- Viability on day 12 post-transfection (CHO-K1 cells [1]; pJF1555, CD-Fusion w/o Pro + 0.05 mM DHP): 83%
- Viability on day 12 post-transfection (CHO-K1 cells [1]; pJF1555, CD-Fusion w/o Pro + 0.1 mM DHP): 53%
- Viability on day 12 post-transfection (CHO-K1 cells [1]; [3]): 40%
- Viability on day 19 post-transfection (CHO-K1 cells [1]; [3]): 27%
- Viability on day 12 post-transfection (CHO-K1 cells [1]; pJF1555, CD-Fusion w/o Pro + 0.4 mM DHP): 20%
- Viability on day 12 post-transfection (CHO-K1 cells [1]; pJF1555, CD-Fusion w/o Pro + 0.8 mM DHP): 13%
- Viability on day 19 post-transfection (CHO-K1 cells [1]; pJF1555, CD-Fusion w/o Pro + 1 mM DHP): 7%
- Viability on day 19 post-transfection (CHO-K1 cells [1]; pJF1555, CD-Fusion w/o Pro + 5 mM DHP): 6%
- Viability on day 19 post-transfection (CHO-K1 cells [1]; pJF1555, CD-Fusion w/o Pro + 10 mM DHP): 7%
- DHP concentration at which cultures did not recover (CHO-K1 cells [1]; pJF1555, proline-free medium, even after extension of cultivation): ≥ 1 mM
- Viability on day 12 post-transfection (CHO-K1 cells [1]; pJF1576, CD-Fusion w/o Pro + 0.05 mM DHP): 91%
- Viability on day 12 post-transfection (CHO-K1 cells [1]; pJF1576, CD-Fusion w/o Pro + 0.1 mM DHP): 74%
- Viability on day 12 post-transfection (CHO-K1 cells [1]; [4]): 49%
- Viability on day 21 post-transfection (CHO-K1 cells [1]; [4]): 87.4%
- Viability on day 12 post-transfection (CHO-K1 cells [1]; [5]): 28%
- Viability on day 21 post-transfection (CHO-K1 cells [1]; [5]): 65.3%
- Viability on day 21 post-transfection (CHO-K1 cells [1]; pJF1576, CD-Fusion w/o Pro + 0.5 mM DHP): 42.8%
- Viability on day 21 post-transfection (CHO-K1 cells [1]; pJF1576, CD-Fusion w/o Pro + 0.6 mM DHP): 35.7%
- Viability on day 12 post-transfection (CHO-K1 cells [1]; pJF1576, CD-Fusion w/o Pro + 0.8 mM DHP): 23%
- Viability on day 21 post-transfection (CHO-K1 cells [1]; pJF1969, CD-Fusion w/o Pro + 0.2 mM DHP): 26.5%
- Viability on day 21 post-transfection (CHO-K1 cells [1]; pJF1969, CD-Fusion w/o Pro + 0.4 mM DHP): 22.9%
- Viability on day 21 post-transfection (CHO-K1 cells [1]; pJF1969, CD-Fusion w/o Pro + 0.5 mM DHP): 23.3%
- Viability on day 21 post-transfection (CHO-K1 cells [1]; pJF1969, CD-Fusion w/o Pro + 0.6 mM DHP): 25.9%
- Viability on day 21 post-transfection (CHO-K1 cells [1]; pJF1970, CD-Fusion w/o Pro + 0.2 mM DHP): 18.2%
- Viability on day 21 post-transfection (CHO-K1 cells [1]; pJF1970, CD-Fusion w/o Pro + 0.4 mM DHP): 21.4%
- Viability on day 21 post-transfection (CHO-K1 cells [1]; pJF1970, CD-Fusion w/o Pro + 0.5 mM DHP): 18.3%
- Viability on day 21 post-transfection (CHO-K1 cells [1]; pJF1970, CD-Fusion w/o Pro + 0.6 mM DHP): 18.2%
- Viability on day 22 post-transfection (CHO-K1 cells [1]; pJF2055, CD-Fusion w/o Pro + 0.02 mM DHP): 99.5%
- Viability on day 22 post-transfection (CHO-K1 cells [1]; pJF2055, CD-Fusion w/o Pro + 0.03 mM DHP): 99.2%
- Viability on day 22 post-transfection (CHO-K1 cells [1]; pJF2055, CD-Fusion w/o Pro + 0.04 mM DHP): 99.2%
- Viability on day 22 post-transfection (CHO-K1 cells [1]; pJF2055, CD-Fusion w/o Pro + 0.06 mM DHP): 83.3%
- Viability on day 22 post-transfection (CHO-K1 cells [1]; pJF2055, CD-Fusion w/o Pro + 0.07 mM DHP): 65.3%
- Viability on day 22 post-transfection (CHO-K1 cells [1]; pJF2055, CD-Fusion w/o Pro + 0.08 mM DHP): 36.3%
- Viability on day 22 post-transfection (CHO-K1 cells [1]; pJF2303, CD-Fusion w/o Pro + 0.02 mM DHP): 99.3%
- Viability on day 22 post-transfection (CHO-K1 cells [1]; pJF2303, CD-Fusion w/o Pro + 0.04 mM DHP): 99.6%
- Viability on day 22 post-transfection (CHO-K1 cells [1]; pJF2303, CD-Fusion w/o Pro + 0.06 mM DHP): 99.4%
- Viability on day 22 post-transfection (CHO-K1 cells [1]; pJF2303, CD-Fusion w/o Pro + 0.08 mM DHP): 99.2%
- Viability on day 22 post-transfection (CHO-K1 cells [1]; pJF2303, CD-Fusion w/o Pro + 0.2 mM DHP): 98.4%
- Viability on day 22 post-transfection (CHO-K1 cells [1]; pJF2303, CD-Fusion w/o Pro + 0.3 mM DHP): 98.2%
- Viability on day 22 post-transfection (CHO-K1 cells [1]; pJF2303, CD-Fusion w/o Pro + 0.4 mM DHP): 98.5%
- Viability on day 22 post-transfection (CHO-K1 cells [1]; pJF2303, CD-Fusion w/o Pro + 0.5 mM DHP): 99.1%
- Viability on day 15 post-transfection (CHO-K1 cells [1]; CD-Fusion w/o Pro + 0.01 mM DHP): 73.2%
- Viability on day 15 post-transfection (CHO-K1 cells [1]; CD-Fusion w/o Pro + 0.03 mM DHP): 44.1%
- Viability on day 15 post-transfection (CHO-K1 cells [1]; CD-Fusion w/o Pro + 0.04 mM DHP): 30.6%
- Viability on day 15 post-transfection (CHO-K1 cells [1]; CD-Fusion w/o Pro + 0.05 mM DHP): 22.8%
- titer improvements (CHO-K1 cells [2]; 0.2 mM or 0.4 mM DHP as additional selection additives, human IgG1, non-selecting batch, #1 - #3 vs #6 & #7): 2-3 fold
- titer improvements as compared to Puromycin-based selections (CHO-K1 cells [2]; DHP as additional selection agent in initial selections, human IgG1, batch under selective conditions): 2-3 fold
- Viability profile (CHO-K1 cells [2]; Day 0 after inoculation, selected in CD-Fusion w/o Pro + 0.05 mM DHP, non-selecting conditions): 99.4%
- Viability profile (CHO-K1 cells [2]; Day 0 after inoculation, selected in CD-Fusion w/o Pro + 0.05 mM DHP, selective conditions): 98.4%
- Viability profile (CHO-K1 cells [2]; Day 0 after inoculation, selected in CD-Fusion w/o Pro + 0.1 mM DHP, non-selecting conditions): 99.0%
- Viability profile (CHO-K1 cells [2]; Day 0 after inoculation, selected in CD-Fusion w/o Pro + 0.1 mM DHP, selective conditions): 97.5%
- Viability profile (CHO-K1 cells [2]; Day 0 after inoculation, selected in CD-Fusion w/o Pro + 0.2 mM DHP, non-selecting conditions): 98.6%
- Viability profile (CHO-K1 cells [2]; Day 0 after inoculation, selected in CD-Fusion w/o Pro + 0.2 mM DHP, selective conditions): 98.2%
- Viability profile (CHO-K1 cells [2]; Day 0 after inoculation, selected in CD-Fusion w/o Pro + 0.4 mM DHP, non-selecting conditions): 96.3%
- Viability profile (CHO-K1 cells [2]; Day 0 after inoculation, selected in CD-Fusion w/o Pro + 0.4 mM DHP, selective conditions): 99.7%
- Productivity profile (CHO-K1 cells [2]; Day 2 after inoculation, human IgG1, selected in CD-Fusion w/o Pro + 0.05 mM DHP, non-selecting conditions): 9.8 mg/L
- Productivity profile (CHO-K1 cells [2]; Day 2 after inoculation, human IgG1, selected in CD-Fusion w/o Pro + 0.05 mM DHP, selective conditions): 47.1 mg/L
- Productivity profile (CHO-K1 cells [2]; Day 2 after inoculation, human IgG1, selected in CD-Fusion w/o Pro + 0.1 mM DHP, non-selecting conditions): 11.0 mg/L
- Productivity profile (CHO-K1 cells [2]; Day 2 after inoculation, human IgG1, selected in CD-Fusion w/o Pro + 0.1 mM DHP, selective conditions): 37.5 mg/L
- Productivity profile (CHO-K1 cells [2]; Day 2 after inoculation, human IgG1, selected in CD-Fusion w/o Pro + 0.2 mM DHP, non-selecting conditions): 11.3 mg/L
- Productivity profile (CHO-K1 cells [2]; Day 2 after inoculation, human IgG1, selected in CD-Fusion w/o Pro + 0.2 mM DHP, selective conditions): 34.4 mg/L
- Productivity profile (CHO-K1 cells [2]; Day 2 after inoculation, human IgG1, selected in CD-Fusion w/o Pro + 0.4 mM DHP, non-selecting conditions): 11.3 mg/L
- Productivity profile (CHO-K1 cells [2]; Day 2 after inoculation, human IgG1, selected in CD-Fusion w/o Pro + 0.4 mM DHP, selective conditions): 39.4 mg/L
- Viability profile (CHO-K1 cells [2]; [6]): 98.9%
- Viable cell density profile (CHO-K1 cells [2]; [6]): 6,1E+05 VCD/ml
- Viability profile (CHO-K1 cells [2]; [7]): 99.3%
- Viable cell density profile (CHO-K1 cells [2]; [7]): 7,9E+05 VCD/ml
- Viability profile (CHO-K1 cells [2]; Day 2 after inoculation, selected in CD-Fusion w/o Pro + 0.2 mM DHP, non-selecting conditions): 99.2%
